Experimental data reported in patent US11083717B2, “Compositions and methods for drug sensitization of parasites” (The Texas A&M University System, priority 2015, dated 2021).
≈ marks a conversion by molar mass, not a printed value. Where two headings read alike, the source gives them in different places.

How the values were obtained:
[1] = test system: Cryptosporidium parvum (CP); assay: Cell culture model of Cryptosporidium parvum infection in HCT-8 cells, real-time qRT-PCR; type: cell-based; conditions: Cryptosporidium parvum; for MIC50: 44 h; for inhibition at 0.25 µM: HCT-8, @0.25 uM
Experimental: Fresh oocysts of CP (Iowa strain) were purchased from Bunch Grass Farm (Deary, Id.). Oocysts were further purified by a Percoll-based gradient centrifugation method and surface sterilized with 10% bleach for 7 min on ice, followed by washes with phosphate-buffered saline (PBS). An ileocecal colorectal adenocarcinoma cell line (HCT-8, ATCC #CCL-244) was used to host the growth of CP in vitro. One day before the inoculation, HCT-8 cells were seeded in 96-well plates (2.5×10^4/well) containing RPMI 1640 medium supplied with 10% fetal bovine serum (200 μL medium/well in all experiments) and allowed to grow overnight at 37° C. under 5% CO2 atmosphere until they reached ˜90% confluence. For drug testing, host cells were infected with 1.5×10^4 oocysts per well (ratio ˜1:3). After inoculation, parasite oocysts were allowed to undergo excystation and invasion into host cells for 3 h at 37° C. Free parasites and oocyst walls in the medium were removed from the plates by an exchange of the culture medium. Drugs at specified concentrations were added into the culture at this time point (immediately after the medium exchange). Parasite-infected cells were then incubated at 37° C. for additional 41 h (total 44 h infection time). At least two independent experiments were conducted for every experimental condition, each including two replicates drugs and eight replicates for negative controls.
Plates containing HCT-8 cells infected with CP for 44 h were first centrifuged for 10 min at 1000×g to ensure that free merozoites in the medium were firmly settled on the bottom of the wells. Medium was removed, followed by two gentle washes with PBS. For extracting total RNA, 200 μL of ice-cold Bio-Rad iScript qRT-PCR sample preparation reagent (lysis buffer) (Bio-Rad Laboratories, Hercules, Calif.) was added into each well. Plates were sealed with heat sealing films and subjected to vortex for 20 min. Plates were then incubated at 75° C. for 15 min, followed by centrifugation (5 min, 2000×g) to settle down cell debris. Supernatants were used immediately in subsequent qRT-PCR reactions or the plates were stored at −80° C. until use.
The levels of 18S rRNA transcripts from CP and host cells (referred to as Cp18S and Hs18S) were detected by real-time qRT-PCR method using qScrip™ one-step SYBR green qRT-PCR kit (Quanta Biosciences, Gaithersburg, Md.). Cell lysates prepared as described above were diluted by 100 and 2000 folds for detecting Cp18S and Hs18S transcripts, respectively. Reactions were performed in hard-shell 384-well skirted PCR plates (Bio-Rad Laboratories, Hercules, Calif.) (10 μL/well) containing 3 μL diluted cell lysate, 5 μL one-step SYBR green master mix, 0.2 μl RT master mix and the following primers: Cp18S-1011F and Cp18S-1185R primer pair for Cp18S rRNA, and Hs18S-1F and Hs18S-1R primer pair for Hs18S rRNA. Hs18S levels were used as controls and for normalization.
Real-time qRT-PCR reactions were performed by a Bio-Rad CFX384 Touch Real-Time PCR Detection System. The reactions started with synthesizing cDNA at 50° C. for 20 min, followed by 5 min at 95° C. to denature RNA-cDNA hybrids and deactivate reverse transcriptase, and 40 two-temperature thermal cycles of PCR amplification at 95° C., 10 sec and 58° C., 30 sec. At the end of PCR amplification, melting curve analysis was performed between 65° C. to 95° C. At least 2 technical replicates were included in qRT-PCR reactions for each sample.
The % inhibition (% inh @ (μM)) was calculated using a standard curve.

[2] = test system: S. cerevisiae; assay: in vitro; conditions: Saccharomyces cerevisiae
[3] = test system: human fibroblast; assay: in vitro
[4] = CP in HCT-8 cells, 44 h infection, 50% reduction of parasite growth vs control, NA: not active, read-out: MIC50
[5] = HCT-8, @10 uM, read-out: % inh @

SMILES | MIC50 [1, 4] [µM] | concentrations at which not toxic, S. cerevisiae cytotoxicity testing [2] [µM] | concentrations at which not toxic, human fibroblast cytotoxicity testing ([3]; human) [µM] | further results
CN1CCN(C(=O)Cc2ccc(Oc3nc4ccc(Cl)cc4s3)cc2)CC1 [NZ-464, 2-{4-[(6-chloro-1,3-benzothiazol-2-yl)oxy]phenyl}-1-(4-methylpiperazin-1-yl)ethan-1-one] | 0.05 to 0.27 (≈ 0.0201 to 0.109 µg/mL) | ≥ 100 | ≥ 100 | 
CN1CCN(C(=O)Cc2ccc(Oc3nc4ccc(F)cc4s3)cc2F)CC1 [NZ-467, 2-{2-fluoro-4-[(6-fluoro-1,3-benzothiazol-2-yl)oxy]phenyl}-1-(4-methylpiperazin-1-yl)ethan-1-one] | 0.25 to 1 (≈ 0.101 to 0.403 µg/mL) | ≥ 100 | ≥ 100 | 
O=C(O)Cc1ccc(Oc2nc3cc(F)c(F)cc3s2)cc1F [NZ-440, 2-{4-[(5,6-difluoro-1,3-benzothiazol-2-yl)oxy]-2-fluorophenyl}acetic acid] | ~10 (≈ 3.39 µg/mL) | ≥ 100 | ≥ 100 | inhibition at 10 µM [1, 5]: 53%
CNC(=O)Cc1c(F)cc(Oc2nc3ccc(Cl)cc3s2)cc1F [NZ-459, 2-{4-[(6-chloro-1,3-benzothiazol-2-yl)oxy]-2,6-difluorophenyl}-N-methylacetamide] | 1 (≈ 0.369 µg/mL) | ≥ 100 | ≥ 100 | 
NC(=O)CNC(=O)Cc1ccc(Oc2nc3ccc(F)cc3s2)cc1 [NZ-438, N-(carbamoylmethyl)-2-{4-[(6-fluoro-1,3-benzothiazol-2-yl)oxy]phenyl}acetamide] | 0.25 to 1 (≈ 0.0898 to 0.359 µg/mL) | ≥ 100 | ≥ 100 | inhibition at 0.25 µM [1]: 43%
CC(C)NC(=O)Cc1ccc(Oc2nc3cc(F)c(F)cc3s2)cc1 [NZ-403, 2-{4-[(5,6-difluoro-1,3-benzothiazol-2-yl)oxy]phenyl)-N-(propan-2-yl)acetamide] | ~10 (≈ 3.62 µg/mL) | ≥ 100 | ≥ 100 | inhibition at 10 µM [1, 5]: 63%
O=C(Cc1ccc(Oc2nc3ccc(F)cc3s2)cc1)N1CCCC1 [NZ-490, 2-{4-[(6-fluoro-1,3-benzothiazol-2-yl)oxy]phenyl}-1-(pyrrolidin-1-yl)ethan-1-one] | ~0.25 (≈ 0.0891 µg/mL) | ≥ 100 | ≥ 100 | inhibition at 0.25 µM [1]: 60%
CC(C(=O)N1CCN(C)CC1)c1ccc(Oc2nc3ccc(F)cc3s2)cc1 (stereo not drawn) [NZ-466, 2-{4-[(6-fluoro-1,3-benzothiazol-2-yl)oxy]phenyl}-1-(4-methylpiperazin-1-yl)propan-1-one] | 0.05 to 0.1 (≈ 0.02 to 0.0399 µg/mL) | ≥ 100 | ≥ 100 | 
CNC(=O)Cc1ccc(Oc2nc3cc(F)c(F)cc3s2)cc1F [NZ-411, 2-{4-[(5,6-difluoro-1,3-benzothiazol-2-yl)oxy]-2-fluorophenyl}-N-methylacetamide] |  | ≥ 100 |  | inhibition at 10 µM ([1]; HCT-8, read-out: % inh @ (μM)): 75.7%; concentrations at which not toxic, human fibroblast cytotoxicity testing [3]: ≥ 100 µM
O=C(Cc1ccc(Oc2nc3ccc(F)cc3s2)cc1)N1CCCCC1 [NZ-471, 2-{4-[(6-fluoro-1,3-benzothiazol-2-yl)oxy]phenyl}-1-(piperidin-1-yl)ethan-1-one] | 1 to 4 (≈ 0.37 to 1.48 µg/mL) | ≥ 100 | ≥ 100 | inhibition at 4 µM ([1]; HCT-8, @4 uM, read-out: % inh @): 89%
CONC(=O)[C@@H](C)Oc1ccc(Oc2cnc3cc(Cl)ccc3n2)cc1 [NZ-295, (2R)-2-{4-[(6-chloroquinoxalin-2-yl)oxy]phenoxy}-N-methoxypropanamide] |  | ≥ 100 | ≥ 100 | inhibition at 10 µM [1, 5]: 61%
CC(C(=O)N(C)C)c1ccc(Oc2nc3ccc(Cl)cc3s2)cc1 (stereo not drawn) [NZ-368, 2-{4-[(6-chloro-1,3-benzothiazol-2-yl)oxy]phenyl}-N,N-dimethylpropanamide] | < 0.125 | 25 to 50 | ≥ 100 | 
CNC(=O)Cc1c(F)cc(Oc2nc3cc(F)c(F)cc3s2)cc1F [NZ-450, 2-{4-[(5,6-difluoro-1,3-benzothiazol-2-yl)oxy]-2,6-difluorophenyl}-N-methylacetamide] | ~2 (≈ 0.741 µg/mL) | ≥ 100 | ≥ 100 | 
O=C(Cc1ccc(Oc2nc3ccc(Cl)cc3s2)cc1)N1CCNCC1 [NZ-479, 2-{4-[(6-chloro-1,3-benzothiazol-2-yl)oxy]phenyl}-1-(piperazin-1-yl)ethan-1-one] | 0.5 to 1 (≈ 0.194 to 0.388 µg/mL) | ≥ 100 | ≥ 100 | 
CNC(=O)Cc1ccc(Oc2nc3cc(F)c(F)cc3s2)cc1 [NZ-400, 2-{4-[(5,6-difluoro-1,3-benzothiazol-2-yl)oxy]phenyl}-N-methylacetamide] |  | ≥ 100 |  | MIC50 [1]: ~10 µM (≈ 3.34 µg/mL); inhibition at 10 µM ([1]; HCT-8, read-out: % inh @ (μM)): 67%; concentrations at which not toxic, human fibroblast cytotoxicity testing [3]: ≥ 100 µM
NC(=O)Cc1ccc(Oc2nc3ccc(Cl)cc3s2)cc1 [NZ-505, 2-{4-[(6-chloro-1,3-benzothiazol-2-yl)oxy]phenyl}acetamide] | ~0.25 (≈ 0.0797 µg/mL) | ≥ 100 | ≥ 100 | 
CNC(=O)Cc1ccc(Oc2nc3cc(F)c(F)cc3s2)cc1O [NZ-401, 2-{4-[(5,6-difluoro-1,3-benzothiazol-2-yl)oxy]-2-hydroxyphenyl}-N-methylacetamide] |  | ≥ 100 |  | inhibition at 4 µM ([1]; HCT-8, read-out: % inh @ (μM)): 3%; concentrations at which not toxic, human fibroblast cytotoxicity testing [3]: ≥ 100 µM
O=C(Cc1ccc(Oc2nc3ccc(F)cc3s2)cc1F)NC1CC1 [NZ-446, N-cyclopropyl-2-{2-fluoro-4-[(6-fluoro-1,3-benzothiazol-2-yl)oxy]phenyl}acetamide] | 1 to 4 (≈ 0.36 to 1.44 µg/mL) | ≥ 100 | ≥ 100 | 
O=C(Cc1ccc(Oc2nc3cc(F)c(F)cc3s2)cc1)N1CCCCC1 [NZ-481, 2-{4-[(5,6-difluoro-1,3-benzothiazol-2-yl)oxy]phenyl}-1-(piperidin-1-yl)ethan-1-one] | 1 to 4 (≈ 0.388 to 1.55 µg/mL) | ≥ 100 | ≥ 100 | 
